Assay results taken from patent US20240409536A1, “COMPOUNDS AND METHODS FOR MODULATING SPLICING” (REMIX THERAPEUTICS INC., priority 2021, published 2024).
pIC50: −log10 of the molar value.

Experiments:
HiBiT-tagged MYB protein = assay: HiBiT protein abundance assay, MYB (K562 HiBiT knock-in cells); format: cell-based, human; conditions: 24 hours
Procedure: (§1) Compounds described herein were used to screen for effects on quantitative protein abundance using a HiBit assay system (Promega). Quantitative protein abundance was determined by measuring the protein levels of HiBit-tagged protein targets expressed in cell culture via luminescence using the Nano-Glo HiBiT Lytic Detection System, which uses a split complementation assay format to reconstitute NanoBiT enzyme to generate a luminescent signal. A protein abundance assay was developed such that endogenous protein targets could be modified with the HiBiT peptide tag and their abundance could be assessed after compound treatment. Briefly, K562 cell lines containing a HiBiT-modification were treated with various compounds described herein (e.g., compounds of Formulas (I), (II), or (III)). After treatment for 24 hours, the protein abundance of a specific target was determined by measuring luminescence.
(§2) • Promega Nano-Glo HiBiT Lytic Detection System (cat #N3030) • Corning 384-well TC-treated microplates (cat #3570) • Synthego Engineered Cells Knock-In Clones
(§3) Cells were maintained in IMDM with 10% FBS. Before the assay, cells were diluted with […] growth media (IMDM+1% FBS media) and were seeded in a 384-well plate at a density of 10000 cells/well (for each cell line listed in Table 6). Each compound was prepared as a 10-point 3-fold serial dilution in DMSO with the top dose at a final concentration of 10 μM in the well. Unmodified K562 cells were added at the previously specified density with DMSO to serve as an assay baseline and positive control (PC) and DMSO only with the respective modified cell lines was added to the negative control (NC) columns. Final DMSO concentration was kept at or below 0.25%. Treated cell plates were placed in an incubator at 37° C. with 5% CO2 for 24 hours. After 24 hours, 25 μL of Complete HiBit Lytic reagent was added to each well at room temperature (e.g. one plate requiring 10 mL Lytic Buffer, 100 μL LgBiT Protein, 200 μL Lytic Substrate), shaken for 5 minutes at 600 RPM, then left to sit for 10 minutes for signal to stabilize before reading on a Spark Cyto plate reader (Tecan) with a 500 ms measurement time.
(§4) To determine compound effects on protein abundance of each target in Table 6, the percent response for each respective cell line was calculated at each compound concentration as follows:
(§5) For the normalized response at each concentration, a four-parameter logistical regression was fit to the data and the response was interpolated at the 50% value to determine a concentration for protein abundance at 50% (IC50) the untreated control.

Target C = assay: HiBiT protein abundance assay, Target C (K562 HiBiT knock-in cells); format: cell-based, human; conditions: 24 hours
Procedure: as §2, §3, §4, §5

HiBiT-tagged HTT protein = assay: HiBiT protein abundance assay, HTT (K562 HiBiT knock-in cells); format: cell-based, human; conditions: 24 hours
Procedure: as §1, §2, §3, §4, §5

HTT mRNA [1] = assay: Gene panel canonical junction qPCR assay, HTT CJ mRNA decrease; format: cell-based, human; conditions: Homo sapiens, canonical junction qPCR, read-out: HTT IC50 (decrease in CJ mRNA levels)
In short: (§6)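 A673 or K562 cells treated with compound; canonical exon-exon junction mRNA quantified by cDNA synthesis and RT-qPCR with junction-spanning primer/probe, normalized to GAPDH, GUSB or PPIA and DMSO (2^(−ΔΔCt)). Percent response from set ΔCt assay windows fitted to 4-parameter logistic; IC50 for CJ decrease.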

MYB mRNA [2] = assay: Gene panel canonical junction qPCR assay, MYB CJ mRNA decrease; format: cell-based, human; conditions: Homo sapiens, canonical junction qPCR, read-out: MYB IC50 (decrease in CJ mRNA levels)
In short: as §6

MYB mRNA [3] = assay: Splicing RT-qPCR assay, MYB canonical (CJ) and alternative (AJ) junction mRNA; format: cell-based; conditions: Homo sapiens, A673 or K562 cells, 24 hours; for pIC50: decrease in canonical junction mRNA; for AC50: increase in alternative junction mRNA
Procedure: (§7) Compounds described herein were used to modulate RNA transcript abundance in cells. The expression of a target mRNA was measured by detecting the formation of an exon-exon junction in the canonical transcript (CJ). A compound mediated exon-inclusion event was detected by observing an increase in formation of a new junction with an alternative exon (AJ). Real-time qPCR assays were used to detect these splicing switches and interrogate the potency of various compounds towards different target genes. A high-throughput real time quantitative PCR (RT-qPCR) assay was developed to measure these two isoforms of the mRNA (CJ and AJ) for exemplary genes, such as HTT, SMN2, and MYB, together with a control housekeeping gene, GAPDH or GUSB or PPIA, used for normalization. Briefly, the A673 or K562 cell line was treated with various compounds described herein (e.g., compounds of Formula (I), (I), or (III)). After treatment, the levels of the HTT, MYB, or SMN2 mRNA targets were determined from each sample of cell lysate by cDNA synthesis followed by qPCR.
(§8) • Cells-to-CT 1-step kit: ThermoFisher A25602, Cells-to-CT lysis reagent: ThermoFisher 4391851C, TaqMan™ Fast Virus 1-Step Master Mix: ThermoFisher 4444436 • GAPDH: VIC-PL, ThermoFisher 4326317E (Assay: Hs99999905_ml)—used for K562/suspension cell lines • GUSB: VIC-PL, ThermoFisher 4326320E (Assay: Hs99999908_ml)—used for K562/suspension cell lines • PPIA: VIC-PL, ThermoFisher 4326316E (Assay: Hs99999904_ml)—used for A673/adherent cell lines
(§9) The A673 cell line was cultured in DMEM with 10% FBS. Cells were diluted with full growth media and plated in a 96-well plate (15,000 cells in 100 ul media per well). The plate was incubated at 37° C. with 5% CO2 for 24 hours to allow cells to adhere. An 11-point 3-fold serial dilution of the compounds was made in DMSO then diluted in media in an intermediate plate. Compounds were transferred from the intermediate plate to the cell plate with the top dose at a final concentration of 10 uM in the well. Final DMSO concentration was kept at or below 0.25%. The cell plate was returned to the incubator at 37° C. with 5% CO2 for an additional 24 hours.
(§10) The K562 cell line was cultured in IMDM with 10% FBS. For K562, cells were diluted with full growth media and plated in either a 96-well plate (50,000 cells in 50 uL media per well) or a 384-well plate (8,000-40,000 cells in 45 uL media per well). An 11-point 3-fold serial dilution of the compounds were made in DMSO then diluted in media in an intermediate plate. Compound was transferred from the intermediate plate to the cell plate with the top dose at a final concentration of 10 uM in the well. Final DMSO concentration was kept at or below 0.25%. Final volume was 100 uL for 96-well plate and 50 uL for 384-well plate. The cell plate was then placed in an incubator at 37° C. with 5% CO2 for 24 hours.
(§11) The cells were then gently washed with 50 uL-100 uL cold PBS before proceeding to addition of lysis buffer. 30 uL-50 uL of room temperature lysis buffer with DNAse I (and optionally RNAsin) was added to each well. Cells were shaken/mixed thoroughly at room temperature for 5-10 minutes for lysis to take place and then 3 uL-5 uL of room temperature stop solution was added and wells were shaken/mixed again. After 2-5 minutes, the cell lysate plate was transferred to ice for RT-qPCR reaction setup. The lysates could also be frozen at −80° C. for later use.
(§12) In some cases, a direct lysis buffer was used. An appropriate volume of 3×lysis buffer (10 mM Tris, 150 mM NaCl, 1.5%-2.5% Igepal and 0.1-1 U/uL RNAsin, pH 7.4) was directly added to either K562 or A673 cells in media and mixed by pipetting 3 times. The plates were then incubated at room temperature with shaking/rocking for 20-50 minutes to allow for lysis to take place. After this time, the cell lysate plate was transferred to ice to set up for the RT-qPCR reactions. The lysates could also be frozen at −80° C. for later use. […]

SMN2 mRNA = assay: Gene panel canonical junction qPCR assay, SMN2 CJ mRNA decrease; format: cell-based, human; conditions: Homo sapiens, canonical junction qPCR, read-out: SMN2 IC50 (decrease in CJ mRNA levels)
In short: as §6

HTT mRNA [4] = assay: Splicing RT-qPCR assay, HTT canonical (CJ) and alternative (AJ) junction mRNA; format: cell-based; conditions: Homo sapiens, A673 or K562 cells, 24 hours; for pIC50: decrease in canonical junction mRNA; for AC50: increase in alternative junction mRNA
Procedure: as §7, §8, §9, §10, §11, §12

Target C mRNA = assay: Gene panel canonical junction qPCR assay, Target C CJ mRNA decrease; format: cell-based; conditions: Homo sapiens, canonical junction qPCR, read-out: Target C IC50 (decrease in CJ mRNA levels)
In short: as §6

K562 cells = assay: Cell Titer Glo 2.0 cell viability assay in K562 cells; conditions: 72 hours

Structure (SMILES) | pIC50 (HiBiT-tagged MYB protein) | pIC50 (Target C) | pIC50 (HiBiT-tagged HTT protein) | pIC50 (HTT mRNA [1]) | pIC50 (MYB mRNA [2]) | pIC50 (MYB mRNA [3]) | AC50 (MYB mRNA [3]) | pIC50 (SMN2 mRNA) | pIC50 (HTT mRNA [4]) | AC50 (HTT mRNA [4]) | pIC50 (Target C mRNA) | Viability (K562 cells)
COCCOc1ncc2c(N3CCNCC3)ccc(C(=O)Nc3cc(F)c4nc(C)cn4c3)c2n1 [Compound 180, N-{8-fluoro-2-methylimidazo[1,2-a]pyridin-6-yl}-2-(2-methoxyethoxy)-5-(piperazin-1-yl)quinazoline-8-carboxamide; trifluoroacetic acid] | < 5.00 | < 5.00 | < 5.00 | – | – | – | – | – | – | – | – | –
Cc1cn2cc(NC(=O)c3c(F)cc(N4CCNCC4)c4ccnnc34)cc(F)c2n1 [Compound 350] | – | – | – | < 5.00 | 5.00 to 6.00 | 5.00 to 6.00 | 1000 to 10000 nM | 6.00 to 7.00 | < 5.00 | > 10000 nM | < 5.00 | –
Cc1cn2cc(NC(=O)c3ccc([C@H]4C[C@@H](C)N[C@@H](C)C4)c4nccnc34)cc(F)c2n1 [Compound 379] | – | – | – | 5.00 to 6.00 | 6.00 to 7.00 | 6.00 to 7.00 | 100 to 1000 nM | > 7.00 | 5.00 to 6.00 | 1000 to 10000 nM | < 5.00 | B (B represents 100-1000 nM)
Cc1cn2cc(NC(=O)c3ccc([C@@H]4C[C@@H](C)N[C@@H](C)C4)c4nccnc34)cc(F)c2n1 [Compound 380] | – | – | – | 6.00 to 7.00 | > 7.00 | > 7.00 | < 100 nM | > 7.00 | 6.00 to 7.00 | 100 to 1000 nM | 6.00 to 7.00 | B (B represents 100-1000 nM)
COc1nc(NC(=O)c2ccc(N3C[C@H](C)N[C@@H](C)C3)c3nccnc23)cn2cc(C)nc12 [Compound 381] | – | – | – | < 5.00 | 6.00 to 7.00 | 6.00 to 7.00 | 100 to 1000 nM | > 7.00 | < 5.00 | > 10000 nM | < 5.00 | B (B represents 100-1000 nM)
Cc1cn2cc(NC(=O)c3ccc(N4C[C@H](C)N[C@@H](C)C4)c4cccnc34)cc(F)c2n1 [Compound 382] | – | – | – | 5.00 to 6.00 | 6.00 to 7.00 | 6.00 to 7.00 | < 100 nM | > 7.00 | 5.00 to 6.00 | 1000 to 10000 nM | 5.00 to 6.00 | B (B represents 100-1000 nM)
COc1nc(NC(=O)c2ccc(N3C[C@@H](C)N[C@@H](C)C3)c3cccnc23)cn2cc(C)nc12 [Compound 383] | – | – | – | 5.00 to 6.00 | 6.00 to 7.00 | 6.00 to 7.00 | 100 to 1000 nM | > 7.00 | 5.00 to 6.00 | 1000 to 10000 nM | 5.00 to 6.00 | B (B represents 100-1000 nM)
COc1nc(NC(=O)c2ccc(N3C[C@H](C)N[C@@H](C)C3)c3cccnc23)cn2cc(C)nc12 [Compound 384] | – | – | – | 5.00 to 6.00 | > 7.00 | > 7.00 | < 100 nM | > 7.00 | 5.00 to 6.00 | 1000 to 10000 nM | < 5.00 | B (B represents 100-1000 nM)
COc1ncc2c(N3C[C@H](C)N[C@@H](C)C3)ccc(C(=O)Nc3cc(F)c4nc(C)cn4c3)c2n1 [Compound 386] | – | – | – | 6.00 to 7.00 | > 7.00 | > 7.00 | < 100 nM | > 7.00 | 6.00 to 7.00 | 100 to 1000 nM | 6.00 to 7.00 | –
